Eleven compounds from patent US20240116985A1, “STAPLED PEPTIDES AND METHODS THEREOF” (priority 2020, published 2024) can be followed below.

One data set can be described thus: CHI Log D procedure. Type of data set: physicochemical. To be noted: for CHI Log D: pH 7.4; for chromatographic logD: pH 7.4, CHI Log D.
In data set [1] the target is T1, full-length beta-Catenin (Uniprot ID P35222) (Homo sapiens, UniProt P35222).
T1 construct: 10 nM full-length beta-Catenin (Uniprot ID P35222)
T1 sequence (P35222 1-781): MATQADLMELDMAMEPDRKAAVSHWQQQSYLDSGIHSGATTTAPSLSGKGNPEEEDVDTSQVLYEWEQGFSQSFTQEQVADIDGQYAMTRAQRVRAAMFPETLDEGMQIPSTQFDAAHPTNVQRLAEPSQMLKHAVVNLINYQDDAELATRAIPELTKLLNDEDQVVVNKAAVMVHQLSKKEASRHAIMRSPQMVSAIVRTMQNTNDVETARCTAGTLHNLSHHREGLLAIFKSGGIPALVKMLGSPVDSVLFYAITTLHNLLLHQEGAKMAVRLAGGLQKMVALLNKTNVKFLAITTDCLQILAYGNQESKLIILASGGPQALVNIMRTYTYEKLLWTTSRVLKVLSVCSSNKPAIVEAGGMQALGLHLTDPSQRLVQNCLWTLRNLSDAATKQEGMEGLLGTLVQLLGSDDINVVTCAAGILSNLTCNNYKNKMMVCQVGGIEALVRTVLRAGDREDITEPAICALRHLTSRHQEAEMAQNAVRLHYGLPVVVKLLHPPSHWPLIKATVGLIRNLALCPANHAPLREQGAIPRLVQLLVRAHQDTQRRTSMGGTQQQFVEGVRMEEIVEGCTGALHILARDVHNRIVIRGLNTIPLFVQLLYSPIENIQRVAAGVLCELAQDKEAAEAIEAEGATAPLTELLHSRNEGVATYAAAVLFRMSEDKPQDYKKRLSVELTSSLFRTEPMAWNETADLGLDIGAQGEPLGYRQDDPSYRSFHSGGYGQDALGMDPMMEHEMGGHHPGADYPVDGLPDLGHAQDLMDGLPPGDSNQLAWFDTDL
As to the kind of experiment: Fluorescence polarization IC50 (beta-catenin / 5FAM-TCF4 10-53 competition). Type of data set: binding. On the technique in general: Fluorescence polarisation rises when a labelled molecule tumbles more slowly, as on binding a larger partner.

[2] abbreviates: Table E2-1, read-out: beta-Catenin FP IC50.
Setting [3] is: fluorescence polarization, beta-catenin, read-out: FP EC50.

Read-outs that look alike come from different tables or passages of the source.

In the case of `CC(=O)N1CCC[C@]12CC=CCCCC1(CCCC=CCOC(=O)N(C)CCC[C@@](C)(C(=O)N[C@@H](Cc3ccccc3)C(=O)N[C@@H](Cc3c[nH]c4ccccc34)C(=O)N[C@@H](CCC(N)=O)C(N)=O)NC(=O)[C@H](C(C)C)NC(=O)[C@H](Cc3ccccc3)NC(=O)[C@H](C)NC(=O)[C@H](C)NC(=O)[C@H](CC(=O)O)NC(=O)[C@H](CC(=O)O)NC1=O)NC(=O)[C@H](C)NC(=O)[C@H](CC(=O)O)NC2=O` (stereo partly drawn) [I-54, Ac-PL3-Asp-Ala-B5-Asp-Asp-Ala-Ala-Phe-Val-SeN-Phe-Trp-Gln-NH2], in “CHI Log D procedure”, the “CHI Log D” value is 1.469. The IC50 in data set [1] (setting [2]) and in data set [1] (setting [3]) was 3190 nM throughout.

One may read the chromatographic logD as lipophilicity estimated from chromatographic retention. In the data set “CHI Log D procedure”, `CC(=O)N1CCC[C@]12CC=CCCCC1(CCCC=CCOC(=O)N(C)CC[C@@](C)(C(=O)N[C@@H](Cc3ccccc3)C(=O)N[C@@H](Cc3c[nH]c4ccccc34)C(=O)N[C@@H](CCC(N)=O)C(N)=O)NC(=O)[C@H](C(C)C)NC(=O)[C@H](Cc3ccccc3)NC(=O)[C@H](C)NC(=O)[C@H](C)NC(=O)[C@H](CC(=O)O)NC(=O)[C@H](CC(=O)O)NC1=O)NC(=O)[C@H](C)NC(=O)[C@H](CC(=O)O)NC2=O` (stereo partly drawn) [I-55, Ac-PL3-Asp-Ala-B5-Asp-Asp-Ala-Ala-Phe-Val-SdN-Phe-Trp-Gln-NH2] returned a chromatographic logD of 1.35. Moreover, the IC50 in data set [1] (setting [2]) is 5000 nM.

`CC(=O)N[C@@H](Cc1ccccc1)C(=O)N[C@@H](CC(=O)O)C(=O)N[C@@H](C)C(=O)N[C@]1(C)CCCCCCC=CCOC(=O)N2CC[C@@](C(=O)N[C@@H](Cc3ccccc3)C(=O)N[C@@H](Cc3c[nH]c4ccccc34)C(=O)N[C@@H](CCC(N)=O)C(N)=O)(C2)NC(=O)[C@H](C(C)C)NC(=O)[C@H](Cc2ccc(F)cc2)NC(=O)[C@H](C)NC(=O)[C@H](C)NC(=O)[C@H](CC(=O)O)NC(=O)[C@H](CC(=O)O)NC1=O` [I-78, Ac-Phe-Asp-Ala-R8-Asp-Asp-Ala-Ala-4FF-Val-PyrS-Phe-Trp-Gln-NH2] had a chromatographic logD in “CHI Log D procedure” of 1.24. In data set [1] (setting [2]), the IC50 was 5000 nM.

`CC(=O)N1CCC[C@]12CC=CCCCC1(CCCC=CCCCCCC[C@@](C)(C(=O)N[C@@H](Cc3ccccc3)C(=O)N[C@@H](Cc3c[nH]c4ccccc34)C(=O)N[C@@H](CCC(N)=O)C(N)=O)NC(=O)[C@H](C(C)C)NC(=O)[C@H](Cc3ccccc3)NC(=O)[C@H](C)NC(=O)[C@H](C)NC(=O)[C@H](CCC(=O)O)NC(=O)[C@H](CC(=O)O)NC1=O)NC(=O)[C@H](C)NC(=O)[C@H](CC(=O)O)NC2=O` (stereo partly drawn) [I-123, Ac-PL3-Asp-Ala-B5-Asp-Glu-Ala-Ala-Phe-Val-S8-Phe-Trp-Gln-NH2] had a chromatographic logD in “CHI Log D procedure” of 1.98. Besides, the IC50 in data set [1] (setting [2]) was determined as 2110 nM.

As for `CC(=O)N1CCC[C@]12CC=CCCCC1(CCCC=CCCCCCC[C@@](C)(C(=O)N[C@@H](Cc3ccccc3)C(=O)N[C@@H](Cc3c[nH]c4ccccc34)C(=O)N[C@@H](CCC(N)=O)C(N)=O)NC(=O)[C@H](C(C)C)NC(=O)[C@H](Cc3ccccc3)NC(=O)[C@H](C)NC(=O)[C@H](C)NC(=O)[C@H](CC(N)=O)NC(=O)[C@H](CC(=O)O)NC1=O)NC(=O)[C@H](C)NC(=O)[C@H](CC(=O)O)NC2=O` (stereo partly drawn) [I-125, Ac-PL3-Asp-Ala-B5-Asp-Asn-Ala-Ala-Phe-Val-S8-Phe-Trp-Gln-NH2], the “CHI Log D” value in the data set “CHI Log D procedure” is recorded as 2.256. The IC50 in data set [1] (setting [2]) and in data set [1] (setting [3]) was 3060 nM in each case.

For the compound `CC(=O)N1CCC[C@]12CC=CCCCC1(CCCC=CCOC(=O)N(C)CCC[C@@](C)(C(=O)N[C@@H](Cc3ccccc3)C(=O)N[C@@H](Cc3c[nH]c4ccccc34)C(=O)N[C@@H](CCC(N)=O)C(N)=O)NC(=O)[C@H](C(C)C)NC(=O)[C@H](Cc3ccccc3)NC(=O)[C@H](C)NC(=O)[C@H](C)NC(=O)[C@H](CCC(=O)O)NC(=O)[C@H](CC(=O)O)NC1=O)NC(=O)[C@H](C)NC(=O)[C@H](CC(=O)O)NC2=O` (stereo partly drawn) [I-131, Ac-PL3-Asp-Ala-B5-Asp-Glu-Ala-Ala-Phe-Val-SeN-Phe-Trp-Gln-NH2], the “CHI Log D” value in “CHI Log D procedure” is 1.496. For the same compound, the IC50 in data set [1] (setting [2]) and in data set [1] (setting [3]) was 2160 nM in each case.

In the data set “CHI Log D procedure”, `CC(=O)N1CCC[C@]12CC=CCCCC1(CCCC=CCCCCCC[C@@](C)(C(=O)N[C@@H](Cc3ccccc3)C(=O)N[C@@H](Cc3c[nH]c4ccccc34)C(=O)N[C@@H](C)C(N)=O)NC(=O)[C@H](C(C)C)NC(=O)[C@H](Cc3ccccc3)NC(=O)[C@H](C)NC(=O)[C@H](C)NC(=O)[C@H](CCC(=O)O)NC(=O)[C@H](CC(=O)O)NC1=O)NC(=O)[C@H](C)NC(=O)[C@H](CC(=O)O)NC2=O` (stereo partly drawn) [I-135, Ac-PL3-Asp-Ala-B5-Asp-Glu-Ala-Ala-Phe-Val-S8-Phe-Trp-Ala-NH2] yielded a chromatographic logD of 2.18. Further, the IC50 in data set [1] (setting [2]) came out at 1870 nM.

For `CC(=O)N1CCC[C@]12CC=CCCCC1(CCCC=CCCCCCC[C@@](C)(C(=O)N[C@@H](Cc3ccccc3)C(=O)N[C@@H](Cc3ccc4ccccc4n3)C(=O)N[C@@H](CCC(N)=O)C(N)=O)NC(=O)[C@H](C(C)C)NC(=O)[C@H](Cc3ccccc3)NC(=O)[C@H](C)NC(=O)[C@H](C)NC(=O)[C@H](CCC(=O)O)NC(=O)[C@H](CC(=O)O)NC1=O)NC(=O)[C@H](C)NC(=O)[C@H](CC(=O)O)NC2=O` (stereo partly drawn) [I-143, Ac-PL3-Asp-Ala-B5-Asp-Glu-Ala-Ala-Phe-Val-S8-Phe-Qui-Gln-NH2], the chromatographic logD in the data set “CHI Log D procedure” was 2.07. Besides, the IC50 in data set [1] (setting [2]) was 2270 nM.

The compound `CC[C@H](C)[C@H](NC(=O)[C@H](CC(=O)O)NC(=O)C(C)(C)NC(C)=O)C(=O)N[C@]1(C)CCN(C)C(=O)OCC=CCCCCC[C@@](C)(C(=O)N[C@@H](Cc2ccccc2)C(=O)N[C@@H](Cc2c[nH]c3ccccc23)C(N)=O)NC(=O)[C@H](CCC(N)=O)NC(=O)[C@H](Cc2ccccc2)NC(=O)[C@H](C)NC(=O)[C@H](C)NC(=O)[C@H](CCC(=O)O)NC(=O)[C@H](CC(=O)O)NC1=O` [I-147, Ac-Aib-Asp-Ile-RdN-Asp-Glu-Ala-Ala-Phe-Gln-S7-Phe-Trp-NH2] had a chromatographic logD in “CHI Log D procedure” of 1.4. The IC50 in data set [1] (setting [2]) is 1640 nM.

In the case of `CC[C@H](C)[C@H](NC(=O)[C@H](CC(=O)O)NC(=O)[C@H](C)NC(C)=O)C(=O)N[C@]1(C)CCN(C)C(=O)OCC=CCCCCC[C@@](C)(C(=O)N[C@@H](Cc2ccccc2)C(=O)N[C@@H](Cc2c[nH]c3ccccc23)C(=O)N[C@@H](Cc2c[nH]cn2)C(N)=O)NC(=O)[C@H](C)NC(=O)[C@H](Cc2ccccc2)NC(=O)[C@H](C)NC(=O)[C@H](C)NC(=O)[C@H](CCC(=O)O)NC(=O)[C@H](CC(=O)O)NC1=O` [I-152, Ac-Ala-Asp-Ile-RdN-Asp-Glu-Ala-Ala-Phe-Ala-S7-Phe-Trp-His-NH2], the chromatographic logD in “CHI Log D procedure” was found to be 1.34. The IC50 in data set [1] (setting [2]) amounted to 5000 nM.

In the case of `CC(=O)N1CCC[C@]12CC=CCCCC1(CCCC=CCCCCCC[C@@](C)(C(=O)N[C@@H](Cc3ccccc3)C(=O)N[C@@H](Cc3c[nH]c4c(F)cccc34)C(=O)N[C@@H](CCC(N)=O)C(N)=O)NC(=O)[C@H](C(C)C)NC(=O)[C@H](Cc3ccccc3)NC(=O)[C@H](C)NC(=O)[C@H](C)NC(=O)[C@H](CCC(=O)O)NC(=O)[C@H](CC(=O)O)NC1=O)NC(=O)[C@H](C)NC(=O)[C@H](CC(=O)O)NC2=O` (stereo partly drawn) [I-166, Ac-PL3-Asp-Ala-B5-Asp-Glu-Ala-Ala-Phe-Val-S8-Phe-7FW-Gln-NH2], the chromatographic logD in “CHI Log D procedure” came out at 2.06. Moreover, the IC50 in data set [1] (setting [2]) amounted to 2160 nM.
